Assays:
[1] = molecular target: T1, cellular TOP1ccs in MCF-7 cells (Homo sapiens, UniProt P11387); test: ICE assay for cellular TOP1cc; details: 1 h, 38 at 25, 50, 100 μM, TPT at 25 and 50 μM
T1 sequence (P11387 2-765 limits assumed): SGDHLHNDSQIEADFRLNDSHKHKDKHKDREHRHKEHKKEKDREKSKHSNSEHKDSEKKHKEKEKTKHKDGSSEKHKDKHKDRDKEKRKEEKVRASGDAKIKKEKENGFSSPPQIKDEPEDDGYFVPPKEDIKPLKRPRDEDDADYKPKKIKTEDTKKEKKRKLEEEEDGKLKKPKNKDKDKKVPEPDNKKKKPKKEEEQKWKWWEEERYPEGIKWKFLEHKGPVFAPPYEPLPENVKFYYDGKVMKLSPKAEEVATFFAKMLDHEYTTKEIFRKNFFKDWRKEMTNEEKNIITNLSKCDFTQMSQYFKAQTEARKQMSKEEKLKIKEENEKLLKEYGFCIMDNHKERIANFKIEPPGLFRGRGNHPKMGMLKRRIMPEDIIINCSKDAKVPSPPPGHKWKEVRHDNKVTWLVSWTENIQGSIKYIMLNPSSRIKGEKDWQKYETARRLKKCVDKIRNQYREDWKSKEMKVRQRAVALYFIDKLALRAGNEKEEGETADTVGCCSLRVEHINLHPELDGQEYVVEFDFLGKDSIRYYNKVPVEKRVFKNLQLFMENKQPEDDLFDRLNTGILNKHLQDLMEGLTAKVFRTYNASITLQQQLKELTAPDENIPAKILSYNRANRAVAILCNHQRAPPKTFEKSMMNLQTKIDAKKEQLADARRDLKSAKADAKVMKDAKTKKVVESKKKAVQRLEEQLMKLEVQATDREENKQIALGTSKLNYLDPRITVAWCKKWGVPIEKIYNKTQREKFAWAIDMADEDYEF

[2] = molecular target: T2, recombinant TOP1 (Homo sapiens, UniProt P11387); test: TOP1-mediated DNA cleavage assay; type: biochemical; details: semiquantitative relative to CPT at 1 μM
T2 sequence (P11387 1-765): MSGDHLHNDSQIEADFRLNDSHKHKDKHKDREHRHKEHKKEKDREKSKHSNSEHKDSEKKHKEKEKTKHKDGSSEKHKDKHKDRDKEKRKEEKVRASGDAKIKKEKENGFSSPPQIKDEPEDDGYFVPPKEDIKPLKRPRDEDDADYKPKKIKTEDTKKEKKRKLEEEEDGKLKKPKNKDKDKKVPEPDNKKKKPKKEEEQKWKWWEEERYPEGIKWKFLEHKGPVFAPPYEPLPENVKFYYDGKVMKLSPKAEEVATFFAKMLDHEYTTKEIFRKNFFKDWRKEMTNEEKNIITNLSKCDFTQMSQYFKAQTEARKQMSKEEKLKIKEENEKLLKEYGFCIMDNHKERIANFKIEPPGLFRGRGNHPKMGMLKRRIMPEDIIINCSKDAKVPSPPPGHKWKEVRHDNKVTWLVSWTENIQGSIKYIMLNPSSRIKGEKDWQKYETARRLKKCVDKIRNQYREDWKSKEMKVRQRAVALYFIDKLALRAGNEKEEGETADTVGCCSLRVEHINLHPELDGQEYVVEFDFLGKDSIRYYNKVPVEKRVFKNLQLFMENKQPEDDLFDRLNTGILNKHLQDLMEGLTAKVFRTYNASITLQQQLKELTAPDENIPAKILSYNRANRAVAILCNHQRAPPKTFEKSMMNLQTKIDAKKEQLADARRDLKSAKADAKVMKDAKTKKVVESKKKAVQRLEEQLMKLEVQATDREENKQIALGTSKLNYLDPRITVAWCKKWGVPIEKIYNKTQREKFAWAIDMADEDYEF

[3] = tested on: MCF-7 cells; test: MTT cytotoxicity assay, MCF-7; type: cell-based, human; details: Homo sapiens, MCF7, 72 h, read-out: GI50 ± SD (μM) MCF-7
[4] = molecular target: recombinant human TDP1 (Homo sapiens, UniProt Q9NUW8); test: TDP1 gel-based inhibition assay; type: biochemical
[5] = tested on: HCT-116 cells; test: MTT cytotoxicity assay, HCT-116; type: cell-based, human; details: Homo sapiens, HCT-116, 72 h, read-out: GI50 ± SD (μM) HCT-116
[6] = tested on: MCF-7 cells; test: Drug combination with TPT; type: cell-based, human; details: co-incubated with TPT for 96 h, 43 at 1 μM
[7] = tested on: MCF-7/TDP1 cells (overexpressing TDP1); test: Drug combination with TPT; type: cell-based, human; details: co-incubated with TPT for 96 h
[8] = tested on: γH2AX foci in MCF-7 cells; test: γH2AX immunofluorescence assay; type: cell-based, human; details: 5 h
[9] = tested on: MCF-7 cells; test: Flow cytometry apoptosis assay; type: cell-based, human; details: 4 µM, 24 h
[10] = molecular target: cellular TDP1ccs in MCF-7 cells (Homo sapiens, UniProt Q9NUW8); details: 1 h
[11] = TOP1 cleavage inhibitory activity, Table 2
[12] = TOP1 cleavage inhibitory activity, Table 1

Sequence of recombinant human TDP1 (Q9NUW8 whole entry): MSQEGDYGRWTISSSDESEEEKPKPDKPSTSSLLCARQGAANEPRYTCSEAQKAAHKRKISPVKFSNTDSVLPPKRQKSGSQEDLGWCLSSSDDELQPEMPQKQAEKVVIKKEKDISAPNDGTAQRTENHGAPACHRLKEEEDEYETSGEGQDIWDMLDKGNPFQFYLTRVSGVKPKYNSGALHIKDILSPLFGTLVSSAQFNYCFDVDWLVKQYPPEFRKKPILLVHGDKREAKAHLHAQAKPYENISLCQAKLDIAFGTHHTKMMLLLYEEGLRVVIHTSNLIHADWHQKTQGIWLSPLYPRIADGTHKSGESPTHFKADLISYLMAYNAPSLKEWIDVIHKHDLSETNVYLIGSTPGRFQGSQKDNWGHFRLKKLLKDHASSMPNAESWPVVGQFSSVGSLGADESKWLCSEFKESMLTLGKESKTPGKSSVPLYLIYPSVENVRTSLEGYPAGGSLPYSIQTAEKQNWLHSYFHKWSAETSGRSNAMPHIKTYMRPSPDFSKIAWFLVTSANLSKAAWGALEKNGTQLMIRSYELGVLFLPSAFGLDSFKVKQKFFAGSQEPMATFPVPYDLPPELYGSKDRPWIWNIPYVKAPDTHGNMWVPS
Sequence of cellular TDP1ccs in MCF-7 cells (Q9NUW8 whole entry): as above

SMILES | TOP1 Inhibition [2, 11] | GI50 [3] [µM] | IC50 [4] [µM] | GI50 [5] [µM] | also measured
COc1cc2c(=O)n(C)c3c4cc5c(cc4cc(OCCN4CCCC4)c3c2cc1OC)OCO5 [Compound 38, 2,3-Dimethoxy-12-methyl-5-(2-(pyrrolidin-1-yl)ethoxy)-[1,3]dioxolo[4’,5’:4,5]benzo[1,2-c]phenanthridin-13(12H)-one] | +++ (+++, between 75% and 95% activity) | 6.4 ± 1 | 37 to 111 | 0.25 ± 0.02 | cellular TOP1cc trapping [1]: trapped cellular TOP1ccs in MCF-7 cells in a dose-dependent manner
COc1cc2c(=O)n(C)c3c4cc5c(cc4cc(OCCCN(C)C)c3c2cc1OC)OCO5 [Compound 35, 5-(3-(Dimethylamino)propoxy)-2,3-dimethoxy-12-methyl-[1,3]dioxolo[4’,5’:4,5]benzo[1,2-c]phenanthridin-13(12H)-one] | 0 | 1.2 ± 0.1 | 18 ± 6.9 | 0.55 ± 0.17 | TOP1 Inhibition [2]: no TOP1 inhibition; combination index (CI) with TPT [6]: 0.02–0.69; combination index (CI) with TPT [7]: 0.003–0.51
CC[C@@]1(O)C(=O)OCc2c1cc1n(c2=O)Cc2cc3c(CN(C)C)c(O)ccc3nc2-1 [TPT, Topotecan, reference compound] |  |  |  |  | cellular TOP1cc trapping [1]: trapped cellular TOP1ccs; γH2AX foci formation ([8]; alone): could obviously induce γH2AX foci formation
COc1cc2c(=O)n(C)c3c4cc5c(cc4cc(OCCCNCCO)c3c2cc1OC)OCO5 [Compound 43, 5-(3-((2-Hydroxyethyl)amino)propoxy)-2,3-dimethoxy-12-methyl-[1,3]dioxolo[4’,5’:4,5]benzo [1,2-c]phenanthridin-13(12H)-one] | + (+, between 20% and 50% activity) | 2.2 ± 1.2 | 10 ± 3.8 | 0.29 ± 0.19 | late apoptosis, % cells [9]: ~28.58%; quantity of cellular TDP1cc ([10]; co-treated with TPT (10 μM) and 43 (10 and 100 μM)): significantly enhanced; cellular TDP1ccs ([10]; compound alone at 100 μM): significantly enhanced; combination index (CI) with TPT [6]: 0.18–0.77; γH2AX foci, fold compared with TPT treated alone ([8]; co-treatment with TPT and 43 at 1 μM): about 1.9 fold; γH2AX foci, fold compared with TPT treated alone ([8]; co-treatment with TPT and 43 at 2 μM): ~2.4 fold; DNA damage (γH2AX foci) relative to that of TPT ([8]; compound alone at 1 μM): about one fifth; combination index (CI) with TPT [7]: 0.003–0.51
COc1cc2c(=O)n(C)c3c4cc5c(cc4c(OCCNCCN(C)C)cc3c2cc1OC)OCO5 [Compound 22, 6-(2-((2-(Dimethylamino)ethyl)amino)ethoxy)-2,3-dimethoxy-12-methyl-[1,3]dioxolo[4’,5’:4,5]benzo[1,2-c]phenanthridin-13(12H)-one] |  | 9.1 ± 2.4 | > 111 | 9.1 ± 1 | TOP1 Inhibition [2, 12]: + (+, between 20% and 50% activity)
CNCCCOc1cc2c3cc(OC)c(OC)cc3c(=O)n(C)c2c2cc3c(cc12)OCO3 [Compound 13, 2,3-Dimethoxy-12-methyl-6-(3-(methylamino)propoxy)-[1,3]dioxolo[4’,5’:4,5]benzo[1,2-c]phenanthridin-13(12H)-one] |  | 33 ± 5 | > 111 | 12 ± 1.2 | TOP1 Inhibition [2, 12]: + (+, between 20% and 50% activity)
COc1cc2c(=O)n(C)c3c4cc5c(cc4cc(OCCCn4ccnc4)c3c2cc1OC)OCO5 [Compound 44, 5-(3-(1H-imidazol-1-yl)propoxy)-2,3-dimethoxy-12-methyl-[1,3]dioxolo[4’,5’:4,5]benzo[1,2-c]phenanthridin-13(12H)-one] | 0/+ (0/+, less than 20%) | 7 ± 0.55 | > 111 | 10 ± 1.2 | 
COc1cc2c(=O)n(C)c3c4cc5c(cc4cc(OCCCN4CCN(c6cccc(C(F)(F)F)c6)CC4)c3c2cc1OC)OCO5 [Compound 45, 2,3-Dimethoxy-12-methyl-5-(3-(4-(3-(trifluoromethyl)phenyl)piperazin-1-yl)propoxy)-[1,3]dioxolo[4’,5’:4,5]benzo[1,2-c]phenanthridin-13(12H)-one] | 0 | 85 ± 3.8 | > 111 | > 100 | 

From paper PMC10233710 (ChemMedChem, 2023)
